System: purified human astrocytes
Test: Calcium imaging of purified human astrocytes (Fluo-4 AM) after ATP or glutamate stimulation
Type: cell-based
Settings: for calcium response (increased intracellular calcium concentrations): 30 nM-670 μM
Description: Therefore, we performed calcium imaging on purified human astrocytes after loading cells grown in vitro with the calcium sensitive dye Fluo-4 AM.
Calcium imaging. Purified human astrocytes were plated at 100,000 cells/imaging chamber (MatTek, P35GC-1.0-14-C) coated with poly-d-lysine. Cells were grown for at least 5 days before imaging. Cells were incubated for 15 minutes with 2 μM Fluo 4 AM (Invitrogen, F-14201) and then washed 3 times with PBS and replaced with 1.5 ml of growth medium per chamber. The cells were then let to recover from mechanical stimulation for 3 minutes and then imaged in a humidified, temperature-controlled chamber with a 40× oil objective. Images were taken at 0.7 s intervals and analyzed with ImageJ.

Compound | temporal pattern of calcium response (postnatal human astrocytes) | time for intracellular calcium to decrease to baseline levels (postnatal human astrocytes, independent of concentration) [s] | calcium response (increased intracellular calcium concentrations) (postnatal human astrocytes) | calcium response (increased intracellular calcium concentrations) (fetal human astrocytes)
N[C@@H](CCC(=O)O)C(=O)O [glutamate] | synchronous non-oscillatory response | ≤ 10 | responded to both | –
Nc1ncnc2c1ncn2[C@@H]1O[C@H](COP(=O)(O)OP(=O)(O)OP(=O)(O)O)[C@@H](O)[C@H]1O [ATP] | asynchronous oscillatory response | – | responded to both | responded
